The record followed here is patent US8822503B2, “2-pyridone compounds” (Taisho Pharmaceutical Co., Ltd, priority 2009, dated 2014).

The target in this assay is T1, human liver GK (Homo sapiens, UniProt P35557).
T1 construct: GST (glutathione S-transferase) (N); made in house; host or cells: E. coli
T1 sequence (P35557 1-466 isoform P35557-2): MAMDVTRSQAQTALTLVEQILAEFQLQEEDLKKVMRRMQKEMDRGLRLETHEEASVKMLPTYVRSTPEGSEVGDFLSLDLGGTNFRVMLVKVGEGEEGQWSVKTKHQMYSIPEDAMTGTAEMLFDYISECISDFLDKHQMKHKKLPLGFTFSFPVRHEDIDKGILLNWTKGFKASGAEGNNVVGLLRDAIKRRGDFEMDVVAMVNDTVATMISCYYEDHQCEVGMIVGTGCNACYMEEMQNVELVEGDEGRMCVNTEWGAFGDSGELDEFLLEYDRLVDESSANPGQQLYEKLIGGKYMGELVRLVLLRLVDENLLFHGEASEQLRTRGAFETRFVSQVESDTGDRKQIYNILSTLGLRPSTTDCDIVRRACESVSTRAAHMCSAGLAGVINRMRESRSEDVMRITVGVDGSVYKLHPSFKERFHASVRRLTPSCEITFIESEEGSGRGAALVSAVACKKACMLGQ
The assay can be described thus: GK activation test. Format: biochemical. Particulars: test compound concentration needed to activate 50% of maximum activation ability; 4 mM 14C-labeled glucose, 2 mM ATP, room temperature, 20 minutes. An outline of the steps: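 GST-tagged human liver GK from E. coli (0.24 μg/well) with 4 mM 14C-glucose, 2 mM ATP in Hepes-KOH pH 7.1, KCl, MgCl2, DTT, 1% DMSO, 20 min room temperature. Labeled glucose 6-phosphate captured on anion resin, eluted and counted. EC50 = concentration giving half of maximal activation.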
Compound `Cc1cc(C(C[C@H]2CCC(=O)N2)c2ccc(C3CC3)c(=O)[nH]2)ccc1F` (single isomer, unassigned) [Example 4-223] showed an EC50 of 500 to 3000 nM.

In turn, `CCN(CC)CCCSc1ccc(/C(=C\C2CCCC2)c2ccc(C)c(=O)[nH]2)cc1Cl` [Example 1-24, 6-[(E)-1-(3-Chloro-4-{[3-(diethylamino)propyl]sulfanyl}phenyl)-2-cyclopentylethenyl]-3-methylpyridin-2(1H)-one] displayed an EC50 of 10 to 500 nM.

The compound `CC(C)(CO)COc1ccc(/C(=C/[C@H]2CCC(=O)N2)c2ccc(C(F)(F)F)cc2)[nH]c1=O` [Example 4-171, 3-(3-Hydroxy-2,2-dimethylpropoxy)-6-{(E)-2-[(2R)-5-oxopyrrolidin-2-yl]-1-[4-(trifluoromethyl)phenyl]ethenyl}pyridin-2(1H)-one] returned an EC50 of 3000 to 10000 nM.

For `O=C1CC[C@H](/C=C(\c2ccc(SC(F)(F)F)cc2)c2ccc(C3CC3)c(=O)[nH]2)N1` [Example 4-141, 3-Cyclopropyl-6-[(E)-2-[(2R)-5-oxopyrrolidin-2-yl]-1-{4-[(trifluoromethyl)sulfanyl]phenyl}ethenyl]pyridin-2(1H)-one], the EC50 lay in the range of 10 to 500 nM.

The compound `O=C1CC[C@H](/C=C(/c2ccc(C3CC3)c(=O)[nH]2)c2ccc(C(F)(F)F)cc2C(F)(F)F)N1` [Example 4-118, 6-{(E)-1-[2,4-Bis(trifluoromethyl)phenyl]-2-[(2R)-5-oxopyrrolidin-2-yl]ethenyl}-3-cyclopropylpyridin-2(1H)-one] returned an EC50 of 3000 to 10000 nM.

`CCc1ccc(C(C[C@H]2CCC(=O)N2)c2ccc(C3CC3)c(=O)[nH]2)cc1Cl` (single isomer, unassigned) [Example 4-337] gave an EC50 of 500 to 3000 nM.

`Cc1ccc(Oc2ccc(/C(=C/[C@H]3CCC(=O)N3)c3ccc(C(C)(C)C)cc3)[nH]c2=O)cc1` [Example 4-187, 6-{(E)-1-(4-tert-Butylphenyl)-2-[(2R)-5-oxopyrrolidin-2-yl]ethenyl}-3-(4-methylphenoxy)pyridin-2(1H)-one] displayed an EC50 of 500 to 3000 nM.

For `COC(=O)c1ccc(/C(=C\C2CCCC2)c2ccc(C)c(=O)[nH]2)cc1` [Example 1-33, Methyl 4-[(E)-2-cyclopentyl-1-(5-methyl-6-oxo-1,6-dihydropyridin-2-yl)ethenyl]benzoate], the EC50 was in the range of 500 to 3000 nM.

`CCN(CC)CCCCc1ccc(/C(=C\C2CCCC2)c2ccc(C(F)(F)F)c(=O)[nH]2)cc1` [Example 1-39, 6-[(E)-2-Cyclopentyl-1-{4-[4-(diethylamino)butyl]phenyl}ethenyl]-3-(trifluoromethyl)pyridin-2(1H)-one] showed an EC50 of 500 to 3000 nM.

`O=C1CC[C@H](/C=C(\c2ccc(C(F)(F)F)c(Cl)c2)c2ccc(C3CC3)c(=O)[nH]2)N1` [Example 4-103, 6-{(E)-1-[3-Chloro-4-(trifluoromethyl)phenyl]-2-[(2R)-5-oxopyrrolidin-2-yl]ethenyl}-3-cyclopropylpyridin-2(1H)-one] had an EC50 of 10 to 500 nM.

`CCOc1cccc(/C(=C\[C@H]2CCC(=O)N2)c2ccc(C3CC3)c(=O)[nH]2)c1` [Example 4-7, 3-Cyclopropyl-6-{(E)-1-(3-ethoxyphenyl)-2-[(2R)-5-oxopyrrolidin-2-yl]ethenyl}pyridin-2(1H)-one] gave an EC50 of 500 to 3000 nM.

On to `Cc1cc(C(C[C@H]2CCC(=O)N2)c2ccc(C3CC3)c(=O)[nH]2)ccc1C(F)(F)F` (single isomer, unassigned) [Example 4-331], for which the EC50 fell in the range of 3000 to 10000 nM.

Regarding `CCCc1ccc(C(C[C@H]2CCC(=O)N2)c2ccc(C(F)(F)F)cc2)[nH]c1=O` (single isomer, unassigned) [Example 4-242], the EC50 fell in the range of 500 to 3000 nM.

Consider `O=C1CC[C@H](/C=C(\c2ccc(S(=O)(=O)N3CCOCC3)cc2)c2ccc(C3CC3)c(=O)[nH]2)N1` [Example 4-138, 3-Cyclopropyl-6-{(E)-1-[4-(morpholin-4-ylsulfonyl)phenyl]-2-[(2R)-5-oxopyrrolidin-2-yl]ethenyl}pyridin-2(1H)-one], for which the EC50 is 10 to 500 nM.

Regarding `CCCc1ccc(/C(=C/[C@H]2CCC(=O)N2)c2ccc(C(C)(C)C)cc2)[nH]c1=O` [Example 4-192, 6-{(E)-1-(4-tert-Butylphenyl)-2-[(2R)-5-oxopyrrolidin-2-yl]ethenyl}-3-propylpyridin-2(1H)-one], the EC50 lay within 10 to 500 nM.

Compound `O=C1CC[C@H](/C=C(\c2ccc(S(=O)(=O)N3CCCC3)cc2)c2ccc(C3CC3)c(=O)[nH]2)N1` [Example 4-136, 3-Cyclopropyl-6-{(E)-2-[(2R)-5-oxopyrrolidin-2-yl]-1-[4-(pyrrolidin-1-ylsulfonyl)phenyl]ethenyl}pyridin-2(1H)-one] showed an EC50 of 10 to 500 nM.

On to `CCCc1ccc(C(CC2CCCC2)c2ccc(SC)cc2)[nH]c1=O` (centres unmarked) [Example 2-8, 6-{2-Cyclopentyl-1-[4-(methylsulfanyl)phenyl]ethyl}-3-propylpyridin-2(1H)-one], for which the EC50 lay in the range of 500 to 3000 nM.

In turn, `CC(=O)NC/C=C(\c1ccc(C(C)(C)C)cc1)c1ccc(Cl)c(=O)[nH]1` [Example 6-35, N-[(2E)-3-(4-tert-Butylphenyl)-3-(5-chloro-6-oxo-1,6-dihydropyridin-2-yl)prop-2-en-1-yl]acetamide] came in with an EC50 of 3000 to 10000 nM.

For the compound `CSc1ccc(/C(=C\CCO)c2ccc(C3CC3)c(=O)[nH]2)cc1` [Example 1-92, 3-Cyclopropyl-6-{(1E)-4-hydroxy-1-[4-(methylsulfanyl)phenyl]but-1-en-1-yl}pyridin-2(1H)-one], the EC50 is 3000 to 10000 nM.

`CC(C)(C)c1ccc(/C(=C\[C@H]2CCC(=O)N2)c2ccc(CCCc3ccccc3)c(=O)[nH]2)cc1` [Example 4-197, 6-{(E)-1-(4-tert-Butylphenyl)-2-[(2R)-5-oxopyrrolidin-2-yl]ethenyl}-3-(3-phenylpropyl)pyridin-2(1H)-one]: the EC50 lay in the range of 500 to 3000 nM.

For `O=C1CC[C@H](/C=C(/c2ccc(C3CC3)c(=O)[nH]2)c2ccc(Cl)cc2F)N1` [Example 4-266, 6-{(E)-1-(4-Chloro-2-fluorophenyl)-2-[(2R)-5-oxopyrrolidin-2-yl]ethenyl}-3-cyclopropylpyridin-2(1H)-one], the concentration giving a half-maximal response (EC50) lay in the range of 10 to 500 nM.

Compound `CC(C)(C)c1ccc(C(SC2CCCC2)c2ccc(Cl)c(=O)[nH]2)cc1` (centres unmarked) [Example 7-4, 6-[(4-tert-Butylphenyl)(cyclopentylsulfanyl)methyl]-3-chloropyridin-2(1H)-one] registered an EC50 of 500 to 3000 nM.

For `CC(C)(C)c1ccc(/C(=C\CN2CCCS2(=O)=O)c2ccc(Cl)c(=O)[nH]2)cc1` [Example 6-7, 6-[(1E)-1-(4-tert-Butylphenyl)-3-(1,1-dioxido-1,2-thiazolidin-2-yl)prop-1-en-1-yl]-3-chloropyridin-2(1H)-one], the EC50 lay in the range of 500 to 3000 nM.

The compound `O=C1CC[C@H](CC(c2ccc(OC3CC3)c(Cl)c2)c2ccc(C3CC3)c(=O)[nH]2)N1` (single isomer, unassigned) [Example 4-345] had an EC50 of 3000 to 10000 nM.

As for `O=C1CC[C@H](/C=C(\c2ccc(O)c(Cl)c2)c2ccc(C3CC3)c(=O)[nH]2)N1` [Example 4-145, 6-{(E)-1-(3-Chloro-4-hydroxyphenyl)-2-[(2R)-5-oxopyrrolidin-2-yl]ethenyl}-3-cyclopropylpyridin-2(1H)-one], the EC50 lay in the range of 10 to 500 nM.

With `CCOc1ccc(C(C[C@H]2CCC(=O)N2)c2ccc(C3CC3)c(=O)[nH]2)cc1` (single isomer, unassigned) [Example 4-328], the EC50 was in the range of 500 to 3000 nM.

As for `CCN(CC)CCNC(=O)c1ccc(/C(=C\C2CCCC2)c2ccc(C3CC3)c(=O)[nH]2)cc1` [Example 1-45, 4-[(E)-2-Cyclopentyl-1-(5-cyclopropyl-6-oxo-1,6-dihydropyridin-2-yl)ethenyl]-N-[2-(diethylamino)ethyl]benzamide], the EC50 is 500 to 3000 nM.

The compound `COc1ccc(/C(=C\[C@H]2CC[C@@H](O)CC2)c2ccc(C3CC3)c(=O)[nH]2)cc1Cl` [Example 1-88, 6-[(E)-1-(3-Chloro-4-methoxyphenyl)-2-(cis-4-hydroxycyclohexyl)ethenyl]-3-cyclopropylpyridin-2(1H)-one] gave an EC50 of 500 to 3000 nM.

Take `CCc1ccc(/C(=C\[C@H]2CCC(=O)N2)c2ccc(Cl)c(=O)[nH]2)cc1Cl` [Example 4-257, 3-Chloro-6-{(E)-1-(3-chloro-4-ethylphenyl)-2-[(2R)-5-oxopyrrolidin-2-yl]ethenyl}pyridin-2(1H)-one]: the EC50 was 10 to 500 nM.

Compound `CCOc1ccc(/C(=C\[C@H]2CCC(=O)N2)c2ccc(C3CC3)c(=O)[nH]2)cc1` [Example 4-6, 3-Cyclopropyl-6-{(E)-1-(4-ethoxyphenyl)-2-[(2R)-5-oxopyrrolidin-2-yl]ethenyl}pyridin-2(1H)-one] showed an EC50 of 10 to 500 nM.

`O=C1CC[C@H](/C=C(\c2ccc(SC3CC3)c(Cl)c2)c2ccc(Cl)c(=O)[nH]2)N1` [Example 4-13, 3-Chloro-6-{(E)-1-[3-chloro-4-(cyclopropylsulfanyl)phenyl]-2-[(2R)-5-oxopyrrolidin-2-yl]ethenyl}pyridin-2(1H)-one] gave an EC50 of 10 to 500 nM.

Turning to `CSc1ccc(/C(=C\[C@H]2CCC(=O)N2C)c2ccc(C3CC3)c(=O)[nH]2)cc1` [Example 4-45, 3-Cyclopropyl-6-{(E)-2-[(2R)-1-methyl-5-oxopyrrolidin-2-yl]-1-[4-(methylsulfanyl)phenyl]ethenyl}pyridin-2(1H)-one], the EC50 is 10 to 500 nM.

Broadly, the EC50 is the midpoint of the concentration-response curve.
